Results from patent US10030027B2, “Soluble guanylate cyclase stimulators” (MERCK SHARP & DOHME CORP., priority 2015, dated 2018).

What was measured:
sGC α1/β1 heterodimer = sGC α1/β1 heterodimer (Homo sapiens (Human), UniProt Q02108+Q02153); assay: Cell-based sGC functional assay (cyclic GMP assay for sGC activator: CASA assay); settings: CHO-K1/sGC cells; for Emax: CHO-K1, activity expressed as percentage of compound A (standard), read-out: % Activation; for EC50: inflection point, 4P fit, read-out: IP
Procedure, shortened: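 CHO-K1 cells stably expressing human sGC α1/β1 were pre-incubated 30 min at 25° C with or without 1 μM DETA-NO, then exposed to compound for 1 hr at 37° C with 0.5 mM IBMX and 2.5% DMSO final. Intracellular cGMP was measured by HTRF, expressed as % of reference sGC-HDA maximum; inflection point and maximum fold induction came from 4-parameter fits.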

[1] = target: human recombinant sGC enzyme (Homo sapiens (Human), UniProt Q02108+Q02153); assay: Size Exclusion Chromatography (SEC) competition binding assay using [3H] Ex-77B as the radioligand; settings: [3H] Ex-77B radioligand, 24 hours at 37° C.
Procedure, shortened: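 Recombinant human sGC binding measured by competition against tritiated Ex-77B radioligand, with non-specific binding defined by 1 μM unlabeled Ex-77B.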

[2] = system: hypoxia-induced pulmonary hypertension rat; assay: Acute efficacy in hypoxia-induced pulmonary hypertension in rat following intratracheal administration; format: in vivo
Description: Acute Efficacy in Hypoxia-Induced Pulmonary Hypertension in Rat Following Intratracheal Administration Charles River Sprague-Dawley (CD) male rats weighing approximately 350 g were implanted with HD-S21 dual pressure telemetry transmitters (Data Sciences International (DSI)) into the pulmonary artery and femoral artery. This transmitter enables simultaneous measurement of both pulmonary and systemic hemodynamic parameters in the same animal. After a 7-10 day post-operative recovery period, animals were subjected to a normobaric hypoxic (10% oxygen) environment using a Higher Peak Mountain Air Generator (MAG-10) connected to a modified rodent cage via a fitted inlet port. Oxygen (at 10%), temperature, humidity, and CO2 were controlled within normal range and animals were maintained on a 12 hour light-dark cycle with ad libitum access to food and water. After two weeks exposure to 10% O2 hypoxic environment, systolic pulmonary arterial pressure readings increased from 25 mmHg to greater than 50 mmHg. Using a 48 hour baseline average, animals with readings between 50-110 mmHg (standard deviation of less than 10 mmHg) and minimal changes in systolic systemic blood pressure were enrolled for study. Animals were utilized for up to 2 studies per week for 4 weeks with a minimum of 2 days washout between doses of test agent. Compound or vehicle was administered intra-tracheally under light isoflurane anesthesia (5% in oxygen; flow rate 2.0 L/min for 3 minutes). Once anesthetized, rats were placed on an angled intubation stand in supine position and the trachea visualized using a small laryngoscope. Animals then received either 0.5 mL/kg of vehicle or 0.5 mL/kg vehicle containing compound intra-tracheally delivered via microsprayer by use of a Penn-Century Microsprayer® needle 3″ (Model IA-1B-GP) attached to a 1 mL high pressure syringe (Penn Century-Model B-SYR-PL1000) (Penn-Century, Philadelphia, Pa.). The Microsprayer® tip was inserted into the trachea up to the point at which the bend in the needle is close to the tip of the snout, which positions the tip of the Microsprayer® in front of the carina (bifurcation of trachea at the bronchi). After dose delivery the animal is placed on its back in the home cage for recovery. Hemodynamic measurements were continuously recorded and readings consolidated to hourly moving averages. Each animal received a vehicle on Day 1 followed by vehicle or test agent on Day 2. Change from vehicle baseline was calculated by subtracting the hourly Day 1 vehicle response from the hourly Day 2 response and treatment group data was expressed as mean±SEM. Decreases of systolic blood pressure (SBP) and systolic pulmonary arterial pressure (PAP) were measured at a particular IT dose (mpk milligrams per kilogram) for the following Example compounds.

[3] = system: Spontaneously hypertensive rats (SHR); assay: Acute efficacy in spontaneously hypertensive rats (SHR); format: in vivo, rat; settings: Dose P.O. 3 mpk
Description: Acute Efficacy in Spontaneously Hypertensive Rats (SHR)
Spontaneously hypertensive rats (SHR, male, Charles River) were implanted with DSI TA11PA-C40 telemetry device (Data Sciences, Inc., St. Paul, Minn.) under isoflurane or ketamine/metomidine anesthesia. The telemetry unit catheter was inserted into the descending aorta via the femoral artery and the telemetry device was implanted subcutaneously in the left flank area. Animals were allowed to recover from surgery for 14 days before the start of any studies. Blood pressure, heart rate, and activity signals from conscious, freely moving rats were recorded continuously for 30 seconds every 10 minutes. On the day prior to administration of compound, a single oral dose of vehicle (10% transcutol/20% Cremophor/70% water) was administered to all animals to establish baseline control data. The blood pressure lowering efficacy of compound (PO) or vehicle was evaluated following a single oral gavage. Data were collected as hourly averages, and changes in blood pressure were calculated by subtracting control baseline data on an hourly basis. Animals were maintained on normal diet with a 12 hour light-dark cycle.
Maximum peak decreases of systolic blood pressure (SBP) in SHR at a particular P.O. dose (mpk milligrams per kilogram) for the following Example compounds are provided.

CC(C)(Cc1coc(C2(C)C(=O)Nc3nc(-c4nn(Cc5ccccc5F)c5cc(Cl)ccc45)nc(N)c32)n1)C(=O)O (stereo not shown) [Example 3A, 3-(2-{4-amino-2-[6-chloro-1-(2-fluorobenzyl)-1H-indazol-3-yl]-5-methyl-6-oxo-6,7-dihydro-5H-pyrrolo[2,3-d]pyrimidin-5-yl)oxazol-4-yl}-2,2-dimethyl-propanoic acid]
Emax (sGC α1/β1 heterodimer): 126%
EC50 (sGC α1/β1 heterodimer): 183 nM
Ki [1]: 0.067 nM
Category: decrease in SBP (at minimum decrease in PAP of ≥15 mmHg) ([2]; Dose IT 0.01 mpk): A (decrease in SBP 0-5 mmHg)

CC(C)(Cc1cccc(C2(C)C(=O)Nc3nc(-c4nn(CCC(F)(F)C(F)(F)F)c5ncccc45)nc(N)c32)c1)C(=O)O (stereo not shown) [Example 11B, 3-(3-{4-Amino-5-methyl-6-oxo-2-[1-(3,3,4,4,4-pentafluorobutyl)-1H-pyrazolo[3,4-b]pyridin-3-yl]-6,7-dihydro-5H-pyrrolo[2,3-d]pyrimidin-5-yl}phenyl)-2,2-dimethylpropanoic acid]
Emax (sGC α1/β1 heterodimer): 99%
EC50 (sGC α1/β1 heterodimer): 537 nM
Ki [1]: 0.304 nM
Category: decrease in SBP (at minimum decrease in PAP of ≥15 mmHg) ([2]; Dose IT 0.03 mpk): B (decrease in SBP 5-10 mmHg)

CC1(c2cn(CCC(=O)O)nn2)C(=O)Nc2nc(-c3nn(CCC(F)(F)C(F)(F)F)c4ncccc34)nc(N)c21 (stereo not shown) [Example 12B, 3-(4-{4-amino-5-methyl-6-oxo-2-[1-(3,3,4,4,4-pentafluorobutyl)-1H-pyrazolo[3,4-b]pyridin-3-yl]-6,7-dihydro-5H-pyrrolo[2,3-d]pyrimidin-5-yl}-1H-1,2,3-triazol-1-yl)propanoic acid]
Emax (sGC α1/β1 heterodimer): 81%
EC50 (sGC α1/β1 heterodimer): 2880 nM
Ki [1]: 2.04 nM
Category: decrease in SBP (at minimum decrease in PAP of ≥15 mmHg) ([2]; Dose IT 0.1 mpk): B (decrease in SBP 5-10 mmHg)

C[C@@]1(c2ccc(CCC(=O)O)cc2)C(=O)Nc2nc(-c3nn(Cc4ccccc4F)c4cc(Cl)ccc34)nc(N)c21 [Example 47B, (S)-3-(4-{4-amino-2-[6-chloro-1-(2-fluorobenzyl)-1H-indazol-3-yl]-5-methyl-6-oxo-6,7-dihydro-5H-pyrrolo[2,3-d]pyrimidin-5-yl}phenyl)propanoic acid]
Emax (sGC α1/β1 heterodimer): 88%
EC50 (sGC α1/β1 heterodimer): 218 nM
Ki [1]: 0.114 nM
Category: decrease in SBP (at minimum decrease in PAP of ≥15 mmHg) ([2]; Dose IT 0.03 mpk): A (decrease in SBP 0-5 mmHg)

CC1(c2nc(CC(=O)O)co2)C(=O)Nc2nc(-c3nn(Cc4ccccc4F)c4cc(Cl)ccc34)nc(N)c21 (stereo not shown) [Example 51B, 2-(2-{4-amino-2-(6-chloro-1-(2-fluorobenzyl)-1H-indazol-3-yl)-5-methyl-6-oxo-6,7-dihydro-5H-pyrrolo[2,3-d]pyrimidin-5-yl}oxazol-4-yl)acetic acid]
Emax (sGC α1/β1 heterodimer): 116%
EC50 (sGC α1/β1 heterodimer): 485 nM
Category: decrease in SBP (at minimum decrease in PAP of ≥15 mmHg) ([2]; Dose IT 0.01 mpk): A (decrease in SBP 0-5 mmHg)

CC(C)(Cc1coc(C2(C)C(=O)Nc3nc(-c4nn(Cc5ccccc5F)c5cc(F)ccc45)nc(N)c32)n1)C(=O)O (stereo not shown) [Example 63A, 3-(2-{4-amino-2-[6-fluoro-1-(2-fluorobenzyl)-1H-indazol-3-yl]-5-methyl-6-oxo-6,7-dihydro-5H-pyrrolo[2,3-d]pyrimidin-5-yl}oxazol-4-yl)-2,2-dimethylpropanoic acid]
Emax (sGC α1/β1 heterodimer): 72%
EC50 (sGC α1/β1 heterodimer): 104 nM
Category: decrease in SBP (at minimum decrease in PAP of ≥15 mmHg) ([2]; Dose IT 0.01 mpk): A (decrease in SBP 0-5 mmHg)

C[C@@]1(c2nc(C3CC3C(=O)O)cs2)C(=O)Nc2nc(-c3nn(CCC(F)(F)C(F)(F)F)c4ncccc34)nc(N)c21 (stereo partly drawn) [Example 80BA, (5S)-2-(2-{-4-amino-5-methyl-6-oxo-2-[1-(3,3,4,4,4-pentafluorobutyl)-1H-pyrazolo[3,4-b]pyridin-3-yl]-6,7-dihydro-5H-pyrrolo[2,3-d]pyrimidin-5-yl}-1,3-thiazol-4-yl)cyclopropane-carboxylic acid]
Category: decrease in SBP (at minimum decrease in PAP of ≥15 mmHg) ([2]; Dose IT 0.1 mpk): B (decrease in SBP 5-10 mmHg)

C[C@@]1(c2nc(CC3(C(=O)O)CC3)cs2)C(=O)Nc2nc(-c3nn(CCC(F)(F)C(F)(F)F)c4ncccc34)nc(N)c21 [Example 81B, (S)-1-[(2-{4-amino-5-methyl-6-oxo-2-[1-(3,3,4,4,4-pentafluorobutyl)-1H-pyrazolo[3,4-b]pyridin-3-yl]-6,7-dihydro-5H-pyrrolo[2,3-d]pyrimidin-5-yl}-1,3-thiazol-4-yl)methyl]cyclopropane carboxylic acid]
Emax (sGC α1/β1 heterodimer): 110%
EC50 (sGC α1/β1 heterodimer): 504 nM
Category: decrease in SBP (at minimum decrease in PAP of ≥15 mmHg) ([2]; Dose IT 0.03 mpk): B (decrease in SBP 5-10 mmHg)

CC(C)(Cc1csc([C@]2(C)C(=O)Nc3nc(-c4nn(Cc5ccccc5F)c5cc(Cl)ccc45)nc(N)c32)n1)C(=O)O [Example 95B, (S)-3-(2-{4-amino-2-[6-chloro-1-(2-fluorobenzyl)-1H-indazol-3-yl]-5-methyl-6-oxo-6,7-dihydro-5H-pyrrolo[2,3-d]pyrimidin-5-yl}-1,3-thiazol-4-yl)-2,2-dimethylpropanoic acid]
Emax (sGC α1/β1 heterodimer): 118%
EC50 (sGC α1/β1 heterodimer): 157 nM
Ki [1]: 0.06 nM
Category: decrease in SBP (at minimum decrease in PAP of ≥15 mmHg) ([2]; Dose IT 0.03 mpk): A (decrease in SBP 0-5 mmHg)

C[C@@]1(c2ccc(CCc3nn[nH]n3)cc2)C(=O)Nc2nc(-c3nn(Cc4ccccc4F)c4cc(Cl)ccc34)nc(N)c21 [Example 112B, (S)-4-Amino-2-[6-chloro-1-(2-fluorobenzyl)-1H-indazol-3-yl]-5-methyl-5-{4-[2-(2H-tetrazol-5-yl)ethyl]phenyl}-5,7-dihydro-6H-pyrrolo[2,3-d]pyrimidin-6-one]
Emax (sGC α1/β1 heterodimer): 130%
EC50 (sGC α1/β1 heterodimer): 2520 nM
Ki [1]: 0.066 nM
Category: decrease in SBP (at minimum decrease in PAP of ≥15 mmHg) ([2]; Dose IT 0.01 mpk): A (decrease in SBP 0-5 mmHg)

CC1(c2ccc(CCC(=O)O)cn2)C(=O)Nc2nc(-c3nn(CCC(F)(F)C(F)(F)F)c4cc(Cl)ccc34)nc(N)c21 (stereo not shown) [Example 119B, 3-(6-{4-Amino-2-[6-chloro-1-(3,3,4,4,4-pentafluorobutyl)-1H-indazol-3-yl]-5-methyl-6-oxo-6,7-dihydro-5H-pyrrolo[2,3-d]pyrimidin-5-yl}pyridin-3-yl)propanoic acid]
Emax (sGC α1/β1 heterodimer): 103%
EC50 (sGC α1/β1 heterodimer): 839 nM
Ki [1]: 0.292 nM
Category: decrease in SBP (at minimum decrease in PAP of ≥15 mmHg) ([2]; Dose IT 0.03 mpk): A (decrease in SBP 0-5 mmHg)

Cc1cc(C2(C)C(=O)Nc3nc(-c4nn(CCC(F)(F)C(F)(F)F)c5cc(Cl)ccc45)nc(N)c32)ccc1CCC(=O)O (stereo not shown) [Example 121B, 3-(4-{4-Amino-2-[6-chloro-1-(3,3,4,4,4-pentafluorobutyl)-1H-indazol-3-yl]-5-methyl-6-oxo-6,7-dihydro-5H-pyrrolo[2,3-d]pyrimidin-5-yl}-2-methylphenyl)propanoic acid]
Emax (sGC α1/β1 heterodimer): 118%
EC50 (sGC α1/β1 heterodimer): 238 nM
Ki [1]: 0.234 nM
Category: maximum peak decrease of systolic blood pressure (SBP) in SHR [3]: A (decrease in SBP in SHRs 5-25 mmHg)

CC1(c2nc(CCC(F)(F)C(=O)O)co2)C(=O)Nc2nc(-c3nn(Cc4ccccc4F)c4cc(Cl)ccc34)nc(N)c21 (stereo not shown) [Example 127A, 4-(2-{4-amino-2-[6-chloro-1-(2-fluorobenzyl)-1H-indazol-3-yl]-5-methyl-6-oxo-6,7-dihydro-5H-pyrrolo[2,3-d]pyrimidin-5-yl}-1,3-oxazol-4-yl)-2,2-difluorobutanoic acid]
Emax (sGC α1/β1 heterodimer): 117%
EC50 (sGC α1/β1 heterodimer): 52 nM
Ki [1]: 0.057 nM
Category: decrease in SBP (at minimum decrease in PAP of ≥15 mmHg) ([2]; Dose IT 0.03 mpk): A (decrease in SBP 0-5 mmHg)
